Experimental data from DBAASP.
In brackets after ≈: the same amount, converted by molar mass. Several values for one entry are separate records, joined by “and”; a condition that tells them apart may be missing. Identical values can stand only once. Values belong to the molecule of their own block, whether it stands above or below them.

Experiments:
Experiment in all cases: ≥ marks a high value that may be exact or a test limit, other limits are often not marked, values filed in µg/mL are converted to µM
[1] = system: Candida albicans
[2] = system: Pseudomonas aeruginosa ATCC 15442
[3] = system: Burkholderia cepacia 6/06
[4] = system: Escherichia coli HB101
[5] = system: Staphylococcus aureus
[6] = system: Pseudomonas aeruginosa
[7] = system: Staphylococcus aureus ATCC 6538P
[8] = system: Staphylococcus aureus Cowan 1
[9] = system: Bacillus subtilis ATCC 9466
[10] = system: Stenotrophomonas maltophilia FC
[11] = system: Staphylococcus aureus ATCC 29213
[12] = system: Pseudomonas aeruginosa ATCC 27853
[13] = system: Salmonella typhimurium ATCC 7731
[14] = system: Escherichia coli ATCC 25922
[15] = system: Bacillus subtilis CMCC 63501
[16] = system: Staphylococcus epidermidis ATCC 12228
[17] = system: Escherichia coli UB1005
[18] = system: Pseudomonas aeruginosa PAO1
[19] = system: Enterococcus faecalis ATCC 29212
[20] = system: Salmonella enterica subsp. enterica serovar Typhimurium ATCC 14028
[21] = system: Escherichia coli
[22] = system: Pseudomonas aeruginosa H188
[23] = system: Escherichia coli DH5alpha
[24] = system: Listeria monocytogenes ATCC 19115
[25] = system: Vibrio alginolyticus ATCC 17749
[26] = system: Staphylococcus aureus ATCC 6538
[27] = system: Aeromonas hydrophila ATCC 7966
[28] = system: Vibrio parahaemolyticus ATCC 33847
[29] = system: Vibrio anguillarum ATCC 19264
[30] = system: Vibrio parahaemolyticus CGMCC 1.1615
[31] = system: Staphylococcus aureus CGMCC 1.363
[32] = system: Vibrio fluvialis CGMCC 1.1609
[33] = system: Pseudomonas fluorescens CGMCC 1.0032
[34] = system: Escherichia coli MC1061
[35] = system: Corynebacterium glutamicum CGMCC 1.1886
[36] = system: Micrococcus luteus CGMCC 1.634
[37] = system: Vibrio harveyi CGMCC 1.1593
[38] = system: Vibrio alginolyticus CGMCC 1.1833
[39] = system: Staphylococcus epidermidis CGMCC 1.2429
[40] = system: Candida albicans CGMCC 2.2411
[41] = system: Aeromonas hydrophila CGMCC 1.0927
[42] = system: Micrococcus luteus CGMCC 1.0634
[43] = system: Aeromonas sobria
[44] = system: Edwardsiella tarda
[45] = system: Bacillus subtilis CGMCC 1.108
[46] = system: Shigella flexneri CGMCC 1.1868
[47] = system: Streptococcus pneumoniae ATCC 49619
[48] = system: Mycobacterium tuberculosis H37Rv

SMILES: CSCC[C@H](NC(=O)[C@@H](NC(=O)CNC(=O)[C@H](CC(C)C)NC(=O)[C@H](CCCCN)NC(=O)[C@H](CCCCN)NC(=O)[C@H](CC(C)C)NC(=O)[C@H](CCSC)NC(=O)[C@@H](NC(=O)[C@H](CCCCN)NC(=O)[C@H](Cc1cnc[nH]1)NC(=O)[C@H](CC(C)C)NC(=O)[C@H](C)N)[C@@H](C)O)[C@@H](C)O)C(=O)N[C@@H](C)C(=O)N[C@@H](CC(C)C)C(N)=O [ALHKTMLKKLGTMAL]
MIC [1]: > 45 µM
MIC [2]: ≥ 45 µM
MIC [3]: ≥ 45 µM
MIC [4]: ≥ 44.9 µM
MIC [5]: > 45 µM
MIC [6]: > 45 µM
MIC [7]: ≥ 45 µM
MIC [8]: ≥ 44.9 µM
MIC [9]: ≥ 45 µM
MIC [10]: ≥ 45 µM

SMILES: CC[C@H](C)[C@H](NC(=O)[C@H](CCCCN)NC(=O)[C@H](CCCCN)NC(=O)[C@H](Cc1ccccc1)NC(=O)[C@H](CC(C)C)NC(=O)[C@H](CCCCN)NC(=O)[C@H](Cc1c[nH]c2ccccc12)NC(=O)[C@H](CCCCN)NC(=O)[C@@H](NC(=O)[C@H](CCCN=C(N)N)NC(=O)[C@@H](NC(=O)[C@H](CCCN=C(N)N)NC(=O)[C@@H](NC(=O)[C@H](CCCN=C(N)N)NC(=O)[C@@H](N)Cc1ccccc1)[C@@H](C)CC)C(C)C)C(C)C)C(N)=O [FRIRVRVKWKLFKKI]
MIC [11]: 2 µM and 4 µM
MIC [12]: 2 µM (≈ 4.03 µg/mL)
MIC [13]: 4 µM (≈ 8.07 µg/mL)
MIC [14]: 2 µM and 4 µM
MIC [15]: 1 µM (≈ 2.02 µg/mL)
MIC [16]: 0.5 µM (≈ 1.01 µg/mL)
MIC [17]: 2 µM (≈ 4.03 µg/mL)
MIC [18]: 2 µM (≈ 4.03 µg/mL)
MIC [19]: 1 µM (≈ 2.02 µg/mL)
MIC [20]: 4 µM (≈ 8.07 µg/mL)

SMILES: CC[C@H](C)[C@H](NC(=O)[C@H](C)NC(=O)[C@H](CCCCN)NC(=O)[C@H](CC(C)C)NC(=O)[C@H](C)NC(=O)[C@@H](NC(=O)[C@H](Cc1cnc[nH]1)NC(=O)[C@H](CC(C)C)NC(=O)[C@H](C)NC(=O)[C@@H](NC(=O)[C@H](CCCCN)NC(=O)[C@H](CCCCN)NC(=O)[C@H](C)NC(=O)[C@H](CO)NC(=O)[C@H](CCCCN)NC(=O)[C@H](Cc1ccccc1)NC(=O)[C@@H](NC(=O)[C@H](CCCCN)NC(=O)[C@H](CC(C)C)NC(=O)[C@H](Cc1ccccc1)NC(=O)[C@H](CO)NC(=O)[C@H](CCCCN)NC(=O)[C@H](Cc1c[nH]c2ccccc12)NC(=O)[C@H](CCCCN)NC(C)=O)[C@@H](C)O)[C@@H](C)O)[C@@H](C)O)C(=O)N[C@@H](CO)C(=O)N[C@@H](CO)C(N)=O [KWKSFLKTFKSAKKTALHTALKAISS]
MIC [12]: 1.37 µM (≈ 4.06 µg/mL)
MIC [14]: 0.685 µM (≈ 2.03 µg/mL)
MIC [21]: 0.342 µM (≈ 1.01 µg/mL)
MIC [22]: 1.37 µM (≈ 4.06 µg/mL)
MIC [23]: 1.37 µM (≈ 4.06 µg/mL)

More lines, main results first:

MIC [24]: 1.39 µM (≈ 3.13 µg/mL)
MIC [25]: ≥ 44.6 µM
MIC [26]: 2.78 µM (≈ 6.25 µg/mL)
MIC [27]: ≥ 44.6 µM
MIC [29]: ≥ 44.6 µM
SMILES: CC(C)C[C@H](N)C(=O)NCC(=O)NCC(=O)N[C@@H](CC(=O)O)C(=O)N[C@@H](CC(N)=O)C(=O)N[C@@H](Cc1ccc(O)cc1)C(=O)NCC(=O)N[C@H](C(=O)N[C@@H](Cc1ccccc1)C(=O)N[C@@H](CO)C(=O)NCC(=O)N[C@@H](CO)C(=O)N[C@@H](CC(N)=O)C(=O)NCC(=O)N[C@@H](CC(N)=O)C(=O)N[C@@H](CC(N)=O)C(=O)N[C@@H](Cc1ccccc1)C(=O)N[C@@H](CCC(N)=O)C(=O)N[C@@H](Cc1cnc[nH]1)C(=O)NCC(=O)N[C@@H](CO)C(=O)N[C@@H](CC(N)=O)C(=O)O)[C@@H](C)O [LGGDNYGTFSGSNGNNFQHGSN]
MIC [28]: 22.3 µM (≈ 50 µg/mL)

MIC [31]: 4.24 µM (≈ 9.33 µg/mL)
MIC [32]: ≥ 48 µM
MIC [33]: 4.24 µM (≈ 9.33 µg/mL)
MIC [34]: 4.24 µM (≈ 9.33 µg/mL)
MIC [35]: 2.12 µM (≈ 4.67 µg/mL)
MIC [36]: 2.12 µM (≈ 4.67 µg/mL)
MIC [37]: ≥ 48 µM
MIC [38]: ≥ 48 µM
MIC [39]: 17 µM (≈ 37.3 µg/mL)
MIC [40]: ≥ 48 µM
MIC [41]: 4.24 µM (≈ 9.33 µg/mL)
MIC [42]: 4.24 µM (≈ 9.33 µg/mL)
MIC [43]: ≥ 48 µM
MIC [44]: ≥ 48 µM
MIC [45]: 4.24 µM (≈ 9.33 µg/mL)
MIC [46]: 4.24 µM (≈ 9.33 µg/mL)
SMILES: CC[C@H](C)[C@H](NC(=O)[C@H](CCCN=C(N)N)NC(=O)CNC(=O)[C@@H](NC(=O)[C@@H]1CCCN1C(=O)[C@H](Cc1ccccc1)NC(=O)[C@H](CCC(N)=O)NC(=O)[C@H](CC(C)C)NC(=O)CNC(=O)[C@H](C)NC(=O)[C@H](CCCN=C(N)N)NC(=O)[C@H](C)NC(=O)[C@H](CO)NC(=O)[C@@H](N)CCCN=C(N)N)C(C)C)C(=O)N[C@@H](Cc1cnc[nH]1)C(=O)N[C@@H](CCCN=C(N)N)C(=O)N[C@@H](Cc1cnc[nH]1)C(=O)N[C@@H](CC(C)C)C(=O)N[C@@H](CCCCN)C(=O)O [RSARAGLQFPVGRIHRHLK]
MIC [30]: ≥ 48 µM

MIC [47]: ≥ 300 µM
MIC [48]: ≥ 300 µM
SMILES: C[C@@H](O)[C@H](N)C(=O)N[C@@H](CCCCN)C(=O)N1CCC[C@H]1C(=O)N[C@@H](CCCCN)C(=O)NCC(=O)N[C@H](C(=O)N[C@@H](CCCCN)C(=O)N1CCC[C@H]1C(=O)N[C@@H](CCCCN)C(=O)NCC(=O)N[C@H](C(=O)N[C@@H](CCCCN)C(=O)N1CCC[C@H]1C(=O)N[C@@H](CCCCN)C(=O)NCC(=O)N[C@H](C(=O)N[C@@H](CCCCN)C(=O)N1CCC[C@H]1C(=O)N[C@@H](CCCCN)C(=O)NCC(N)=O)[C@@H](C)O)[C@@H](C)O)[C@@H](C)O [TKPKGTKPKGTKPKGTKPKG]
